Ten compounds from ChEMBL document CHEMBL1201862, “PubChem BioAssay data set” (2004) can be followed below.

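1) Cells in 96-well plates. 2) Compound, 48 h, 5 concentrations. 3) Linear interpolation between surrounding doses. 4) Unreached endpoint = highest concentration. Abbreviation: GI50, concentration required for 50% inhibition of growth.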 Calls of active or inactive are those of the source. No stated cut-off is given here; in the data, active = GI50 up to about 1.1 µM and inactive = higher.

Common to all, as to experiment: NCI tumour cell line growth inhibition, 48 h
The subject of assay [1] is M14.
The test system of assay [2] is UACC-257.
For assay [3], the system named is MDA-MB-231.
Assay [4] concerns NCI-H522.
Assay [5] concerns HCT-116.
Assay [6] concerns HCT-15.
In assay [7] the test system is IGROV-1.
In assay [8] the test system is OVCAR-5.
The subject of assay [9] is BT-549.
The subject of assay [10] is MOLT-4.
The subject of assay [11] is EKVX.
Assay [12] concerns NCI/ADR-RES.
Assay [13] relates to T47D.
Assay [14] relates to PC-3.
Assay [15] relates to UO-31.
In assay [16] the test system is HOP-62.
In assay [17] the test system is OVCAR-3.
The subject of assay [18] is SNB-19.
The test system of assay [19] is ACHN.
The test system of assay [20] is OVCAR-4.

Take `CC(C)[Si]1(C(C)C)OCC2OC(N3C(=O)NC(=O)C[C@@H]3C(O)c3ccccc3)CC2O[Si](C(C)C)(C(C)C)O1` (stereo not given in full): the GI50 is 12.7 µM (inactive) in [1]; 4.85 µM (inactive) in [2]; 5.86 µM (inactive) in [3]; 3.18 µM (inactive) in assay [4]; 4.36 µM (inactive) in assay [5]; 5.42 µM in [6]. Also, the GI50 in assay [7] was 4.74 µM (inactive); in [8] it was 13.5 µM (inactive); in assay [9] it was 18.1 µM (inactive); in assay [10] it was 2.31 µM (inactive); in assay [11], 8.2 µM (inactive); in assay [12], 5.32 µM (inactive). Also, the GI50 is 2.69 µM (inactive) in assay [13]; 4.3 µM (inactive) in assay [14]; 10.8 µM (inactive) in assay [15]; 11.9 µM (inactive) in [16]; 4.83 µM (inactive) in [17]; 9.93 µM (inactive) in [18]. For the same compound, the GI50 in [19] is 7.11 µM (inactive); in [20] it was 4.51 µM (inactive).

In the case of `CN(CC(=O)O)Cc1oc(CO)cc(=O)c1O`, the GI50 is > 100 µM (inactive) in assay [1]; > 100 µM (inactive) in assay [2]; > 100 µM (inactive) in assay [3]; > 100 µM (inactive) in assay [4]; > 100 µM (inactive) in assay [5]; more than 100 µM in [6]. Further, the GI50 in [7], in assay [8], in assay [9], in assay [10], in assay [11] and in [12] was > 100 µM (inactive) throughout. For the same compound, the GI50 in assay [13], in [14], in assay [15], in [16], in assay [17] and in [18] was > 100 µM (inactive) throughout. The GI50 in [19] and in [20] was > 100 µM (inactive) throughout.

Consider `CC[C@@H](C)[C@H]([C@H](CC(=O)N1CCC[C@@H]1[C@@H](OC)[C@H](C)C(=O)N[C@H](Cc1ccccc1)c1nccs1)OC)N(C)C(=O)[C@H](NC(=O)[C@@H](C(C)C)N(C)C)C(C)C`, for which the GI50 in assay [1] was 0.000165 µM (active); in assay [2], 0.000262 µM (active); in assay [3], < 0.01 µM (active); in assay [4], < 0.01 µM (active); in assay [5] it was 0.000125 µM (active); in [6] it was 0.000366 µM. Moreover, the GI50 is 0.000681 µM (active) in assay [7]; 0.0005 µM (active) in [8]; < 0.01 µM (active) in assay [9]; 0.000229 µM (active) in assay [10]; 0.000277 µM (active) in assay [11]; < 0.01 µM (active) in [12]. For the same compound, the GI50 is > 77.6 µM (inactive) in [13]; < 0.01 µM (active) in [14]; 0.00206 µM (active) in [15]; 0.000193 µM (active) in [16]; 3.11e-05 µM (active) in [17]; 0.000267 µM (active) in assay [18]. In addition, the GI50 in [19] is 0.000439 µM (active); in assay [20], 0.000745 µM (active).

Regarding `N#Cc1cccc(C2ON=C(c3ccc([N+](=O)[O-])cc3)N2C23CC4CC(CC(C4)C2)C3)c1` (stereo not given), the GI50 was 57.8 µM (inactive) in assay [1]; > 100 µM (inactive) in [2]; 63.7 µM (inactive) in assay [3]; 24.3 µM (inactive) in [4]; 6.21 µM (inactive) in [5]; 66.8 µM in [6]. The GI50 in [7] was > 100 µM (inactive); in [8], 3.21 µM (inactive); in assay [9], 82.6 µM (inactive); in assay [10] it was 6.68 µM (inactive); in assay [11], > 100 µM (inactive); in assay [12] it was > 100 µM (inactive). Also, the GI50 in assay [13] was 17.3 µM (inactive); in assay [14] it was 5.2 µM (inactive); in assay [15], 24.1 µM (inactive); in assay [16], > 100 µM (inactive); in [17], 39.3 µM (inactive); in [18], > 100 µM (inactive). The GI50 was > 100 µM (inactive) in assay [19] and 26.9 µM (inactive) in assay [20].

With `CC(NC(=O)C(N)CC(=O)O)NC(=O)C1CCC1` (stereo not given), the GI50 in assay [1] was > 100 µM (inactive); in assay [2], > 100 µM (inactive); in assay [3] it was > 100 µM (inactive); in assay [4], > 100 µM (inactive); in assay [5], > 100 µM (inactive); in assay [6], more than 100 µM. In addition, the GI50 was > 10 µM (inactive) in assay [7]; > 100 µM (inactive) in [8]; > 100 µM (inactive) in assay [9]; > 100 µM (inactive) in [10]; > 100 µM (inactive) in assay [11]; > 100 µM (inactive) in assay [12]. The GI50 in assay [13], in [14], in assay [15], in assay [16], in assay [17] and in [18] was > 100 µM (inactive) each time. Also, the GI50 in assay [19] and in assay [20] was > 100 µM (inactive) each time.

`O=C1CC2C(=O)C1C(C(=O)O)C2C(=O)O` (stereo not given): the GI50 in assay [1] is > 100 µM (inactive); in assay [2] it was > 100 µM (inactive); in assay [3], > 100 µM (inactive); in assay [4], > 100 µM (inactive); in [5] it was > 100 µM (inactive); in assay [6] it was more than 100 µM. For the same compound, the GI50 in assay [7], in [8], in [9], in [10], in assay [11] and in [12] was > 100 µM (inactive) in each case. Further, the GI50 in assay [13], in assay [14], in [15], in [16], in assay [17] and in assay [18] was > 100 µM (inactive) each time. In addition, the GI50 in assay [19] and in assay [20] was > 100 µM (inactive) in each case.

With `CCCCCCCCCCCCCCCCCCOCC(COP(=O)([O-])OCC[N+](C)(C)C)OC` (stereo not given) [EDELFOSINE], the GI50 in assay [1] was 32.9 µM (inactive); in [2], 24 µM (inactive); in assay [3] it was 59.7 µM (inactive); in assay [4] it was 11.4 µM (inactive); in assay [5] it was 14.7 µM (inactive); in assay [6], 3.36 µM. For the same compound, the GI50 in [7] was 6.67 µM (inactive); in assay [8], 15.9 µM (inactive); in assay [9], 48.8 µM (inactive); in assay [10] it was 11.5 µM (inactive); in [11] it was 44.3 µM (inactive); in assay [12], 42.3 µM (inactive). Moreover, the GI50 in assay [13] was > 100 µM (inactive); in assay [14], 7.19 µM (inactive); in assay [15], 27.4 µM (inactive); in [16], 19.2 µM (inactive); in assay [17] it was 34.3 µM (inactive); in [18], 20.7 µM (inactive). Besides, the GI50 is > 72.8 µM (inactive) in assay [19] and 26.6 µM (inactive) in assay [20].

Consider `O=C(C1OC1c1ccc([N+](=O)[O-])cc1)C12CC3CC(CC(C3)C1)C2` (stereo not given), for which the GI50 in assay [1] is 15.2 µM (inactive); in assay [2] it was 14.7 µM (inactive); in assay [3], 16.7 µM (inactive); in [4], 29 µM (inactive); in [5], 7.59 µM (inactive); in assay [6], 13.2 µM. The GI50 in assay [7] was 16.4 µM (inactive); in [8] it was 21 µM (inactive); in assay [9], 23.8 µM (inactive); in [10] it was 18.5 µM (inactive); in assay [11] it was 18.8 µM (inactive); in assay [12], 17.6 µM (inactive). For the same compound, the GI50 in [13] was 16.6 µM (inactive); in [14] it was 14.6 µM (inactive); in assay [15], 18.3 µM (inactive); in [16] it was 24.3 µM (inactive); in [17], 13.7 µM (inactive); in assay [18], 17.5 µM (inactive). The GI50 was 18.5 µM (inactive) in assay [19] and 17.8 µM (inactive) in [20].

For `CC(C)(C)c1ccc2c(c1)OCc1n[nH]c(n1)COc1cc(C(C)(C)C)ccc1OCCOCCO2`, the GI50 in assay [1] is 2.86 µM (inactive); in [2], 2.65 µM (inactive); in assay [3] it was 9.48 µM (inactive); in [4], 2.4 µM (inactive); in assay [5], 4.31 µM (inactive); in assay [6], 4.95 µM. Moreover, the GI50 in assay [7] was 5.69 µM (inactive); in assay [8] it was 5.96 µM (inactive); in assay [9], 2.81 µM (inactive); in assay [10], 3.67 µM (inactive); in assay [11], 4.3 µM (inactive); in [12], 3.41 µM (inactive). The GI50 in assay [13] was 3.48 µM (inactive); in assay [14], 2.41 µM (inactive); in [15] it was 3.67 µM (inactive); in [16], 5.62 µM (inactive); in assay [17], 2.53 µM (inactive); in [18], 4.23 µM (inactive). For the same compound, the GI50 in [19] was 4.39 µM (inactive); in assay [20] it was 0.248 µM (active).

As to `COC(=O)N/N=C(/c1nc2ccc([N+](=O)[O-])cc2nc1O)C(O)c1ccc(OC)c(OC)c1` (stereo not given), the GI50 in [1] was > 100 µM (inactive); in [2], 47.1 µM (inactive); in [3] it was 64.3 µM (inactive); in assay [4] it was 40.5 µM (inactive); in assay [5], 97.1 µM (inactive); in assay [6], 46.8 µM. For the same compound, the GI50 in assay [7] is > 100 µM (inactive); in [8], > 100 µM (inactive); in [9] it was > 100 µM (inactive); in [10] it was 33 µM (inactive); in [11] it was > 100 µM (inactive); in assay [12], 92 µM (inactive). Further, the GI50 in assay [13] was 80 µM (inactive); in assay [14] it was 76.2 µM (inactive); in [15], > 100 µM (inactive); in assay [16], > 60.5 µM (inactive); in assay [17] it was > 54.7 µM (inactive); in assay [18], > 100 µM (inactive). The GI50 in assay [19] and in assay [20] was > 100 µM (inactive) each time.
